Results published in publication PMC10352257, “In vivo effects of the alpha-synuclein misfolding inhibitor minzasolmin supports clinical development in Parkinson’s disease” (NPJ Parkinson's Disease, 2023).
Where two headings read alike, the source gives them in different places.

Assays:
[1] = Bioanalysis of compound levels in plasma and brain after long-term treatment; format: in vivo; conditions: mouse, ip, Line 61 transgenic mice, 1 h post final dose, mean ± S.E.M.
Procedure: (§1) Minzasolmin was dissolved in a vehicle solution consisting of 40% Captisol (CyDex Pharmaceuticals, Inc.; Kansas, USA) in sterile water and administered at a volume of 0.1 ml/20 g of body weight. Animals received a Monday–Friday daily intraperitoneal injection of vehicle, or 1 or 5 mg/kg minzasolmin for approximately 90 days. Animals received treatment up to and including a final injection 1 h prior to euthanasia. All study solutions were blind coded and experimenters were blinded to genotype and treatment group assignments for the duration of the study, ex vivo evaluations (i.e., neuropathology sample processing and imaging, videotape scoring) and through penultimate data analyses (i.e., data quality control with documented exclusions prior to unblinding; unblinding required for a priori pairwise comparisons).
(§2) All subjects were euthanized within 1 h of the last treatment and brain and blood were collected. Tissue processing and imaging methods were conducted as described previously[17],[18],[52] and performed under a lab service agreement between UCSD and Neuropore Therapies. All samples were blind coded to genotype and treatment group throughout immune-histological processing and imaging. The right hemibrain was post-fixed in phosphate-buffered 4% paraformaldehyde (pH 7.4) at 4 °C for 48 and then serially sectioned into […] thick sagittal sections using a vibratome. Sections were free-floated and incubated overnight at 4 °C with primary antibodies. To confirm the specificity of primary antibodies, control experiments were performed in which sections were incubated overnight in the absence of primary antibody, pre-immune serum, or primary antibody pre-adsorbed for 48 h with 20-fold excess of the corresponding peptide. Tissue collection, processing, and imaging methods were conducted as described previously. Briefly, the right hemibrain was post-fixed in phosphate-buffered 4% paraformaldehyde (pH 7.4) at 4 °C for 48 h, and then serially sectioned into 40 µm thick coronal sections using a vibratome. Sections were free-floated and incubated overnight at 4 °C with primary antibodies. To confirm the specificity of primary antibodies, control experiments were performed in which sections were incubated overnight in the absence of primary antibody (data not shown). Immunolabeled sections were imaged with a Zeiss 63× (N.A. 1.4) objective on an Axiovert 35 microscope (Zeiss, Germany). Immunolabeling was evaluated as a corrected optical density across a field of view. Summary tables of statistics for each measure are presented in Supplementary Tables 1–5.
Analysis of minzasolmin by HPLC-MS/MS in plasma and brain homogenate study subject samples was conducted by PRA Health Sciences (Lenexa, KS, USA). Group means were obtained using Graph Pad Prism v. […]

[2] = parameters: method as in PMID 35959805; conditions: normal healthy volunteers and patients with Parkinson's disease; cited from earlier work
GFAP = experiment: Immunolabeling of glial fibrillary acidic protein (GFAP), 3-month study; format: in vivo, mouse; conditions: for change in GFAP immunolabeling vs vehicle-treated Line 61 transgenic mice: cortex and hippocampus (P < 0.0001); for GFAP immunolabeling, mean: 3 months, adjusted P <0.0001
Source text: A transgenic mouse model of Parkinson’s disease overexpressing human wild-type ASYN under the murine Thy-1 promoter on a mixed C57Bl/6 background was used in the present studies (commonly referred to Line 61)[49]. The Line 61 transgenic mouse model of Parkinson’s disease develops extensive accumulation of ASYN in areas relevant to Parkinson’s disease[49]–[51], neurodegeneration (as evidenced by loss of tyrosine hydroxylase[52],[53] and dopamine transporter immunoreactivity[18] in the striatum), inflammation, and both motor and non-motor functional deficits. Multiple cohorts of mice were transferred from the University of California, San Diego to a Neuropore-funded AAALAC-accredited vivarium facility per a laboratory service agreement between Neuropore Therapies, Inc. and the laboratory of Dr. Eliezer Masliah under institutional animal care and use committee (IACUC) Protocol S02221. All in vivo testing was conducted by Neuropore personnel under Explora Biosciences animal care and use protocol (ACUP) number E15-016-2. Three-month-old male transgenic and age-matched non-transgenic littermate control mice were used and housed up to 5 per cage. Animals received free access to food and water prior to the experiment. The vivarium ambient room temperature was monitored daily and kept within a range of 68–72 degrees Fahrenheit. Animals were kept on a 12:12 diurnal light cycle, with lights on at 0600.
as §1
as §2, with “Summary tables of statistics for each measure are presented in Supplementary Tables 1–5.” left out

SMILES: CCCC[C@H](Cc1c[nH]c2ccccc12)NC(=O)c1cnc(N2CCN(C)CC2)s1 [minzasolmin]
- concentration at 1 h ([1]; brain, 1 mg/kg i.p. daily about 90 days, read-out: [minzasolmin] Brain): 12.1 ± 1.5 ng/g
- concentration at 1 h ([1]; brain, 5 mg/kg i.p. daily about 90 days, read-out: [minzasolmin] Brain): 69.5 ± 4.7 ng/g
- concentration at 1 h ([1]; plasma, 1 mg/kg i.p. daily about 90 days, read-out: [minzasolmin] Plasma): 72.3 ± 7.9 ng/mL
- concentration at 1 h ([1]; plasma, 5 mg/kg i.p. daily about 90 days, read-out: [minzasolmin] Plasma): 357 ± 16.8 ng/mL
- safety and pharmacokinetic profiles [2]: favorable
- change in GFAP immunolabeling vs vehicle-treated Line 61 transgenic mice (GFAP; 1 mg/kg): decreased
- change in GFAP immunolabeling vs vehicle-treated Line 61 transgenic mice (GFAP; 5 mg/kg): decreased
- effect of dose on GFAP levels, 1 vs. 5 mg/kg (GFAP; cortex and hippocampus): no statistically significant effect
- GFAP immunolabeling, mean (GFAP; cortex, Line 61 tg/1 mg/kg (first group of that name), Line 61 tg/Vehicle 223.1): 155.9
- GFAP immunolabeling, mean (GFAP; cortex, Line 61 tg/1 mg/kg as printed (second group of that name), Line 61 tg/Vehicle 223.1): 169.3
- GFAP immunolabeling, mean (GFAP; hippocampus, Line 61 tg/1 mg/kg (first group of that name), Line 61 tg/Vehicle 350.8): 271.6
- GFAP immunolabeling, mean (GFAP; hippocampus, Line 61 tg/1 mg/kg as printed (second group of that name), Line 61 tg/Vehicle 350.8): 289.7
